Our source for the IC50 values is patent US20090170886A1 (Pfizer Inc, priority 2005, published 2009).

One may read the IC50 as the concentration that inhibits the measured activity by half. Read a high IC50 as lower potency.

The target of the assay is T1, androgen receptor in MDA-MB453-MMTV clone 54-19 cells (Homo sapiens, UniProt P10275).
T1 sequence (P10275 1-920 Q868H): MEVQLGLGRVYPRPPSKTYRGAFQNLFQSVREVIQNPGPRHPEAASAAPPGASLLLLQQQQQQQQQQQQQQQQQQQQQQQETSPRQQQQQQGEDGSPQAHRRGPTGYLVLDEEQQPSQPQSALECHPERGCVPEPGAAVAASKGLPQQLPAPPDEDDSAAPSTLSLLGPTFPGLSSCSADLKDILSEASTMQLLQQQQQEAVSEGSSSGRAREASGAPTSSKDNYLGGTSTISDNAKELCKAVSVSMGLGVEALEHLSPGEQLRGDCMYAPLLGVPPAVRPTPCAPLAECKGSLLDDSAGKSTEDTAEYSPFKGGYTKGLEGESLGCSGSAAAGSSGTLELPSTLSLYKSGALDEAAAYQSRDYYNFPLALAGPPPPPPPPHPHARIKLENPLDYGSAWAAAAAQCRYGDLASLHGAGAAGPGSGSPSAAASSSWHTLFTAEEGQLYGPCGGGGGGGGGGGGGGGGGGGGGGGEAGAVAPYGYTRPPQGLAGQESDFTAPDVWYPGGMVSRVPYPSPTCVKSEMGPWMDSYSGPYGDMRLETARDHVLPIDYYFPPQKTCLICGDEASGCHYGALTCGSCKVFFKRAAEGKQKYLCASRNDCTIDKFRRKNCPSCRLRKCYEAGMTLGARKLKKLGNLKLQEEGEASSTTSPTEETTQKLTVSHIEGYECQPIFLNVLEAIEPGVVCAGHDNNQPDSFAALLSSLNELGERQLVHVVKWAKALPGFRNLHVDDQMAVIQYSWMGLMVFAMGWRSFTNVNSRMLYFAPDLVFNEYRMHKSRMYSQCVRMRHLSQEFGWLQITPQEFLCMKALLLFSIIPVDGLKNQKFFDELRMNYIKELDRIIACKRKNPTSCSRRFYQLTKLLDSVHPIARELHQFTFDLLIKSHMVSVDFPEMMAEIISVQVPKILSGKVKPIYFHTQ
In words: AR Antagonist Cell Assay (MMTV-luciferase reporter, DHT-induced). The following applies: MDA-MB453-MMTV clone 54-19, 100 pM DHT, 17 hr; mean of multiple tests. Type of assay: cell-based. An outline of the steps:
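MDA-MB453 cells stably carrying an ARE-containing MMTV-luciferase reporter, in phenol red-free medium with 1% charcoal-treated serum, preincubated 30 min with compound (0.32-1000 nM), then stimulated with 100 pM DHT for 17 h at 37 °C. Luminescence read; percent inhibition of DHT fold induction.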
In general terms: In a reporter assay the amount or activity of a reporter protein is the signal.
Consider `CC(C)CC(Oc1ccc(C#N)c(C(F)(F)F)c1)c1cccc(O)c1` (single isomer, unassigned; (+)) [Example 21, (+)4-[1-(3-Hydroxyphenyl)-3-methylbutoxy]-2-(trifluoromethyl)benzonitrile], for which 0.079 µM corresponded to half-maximal inhibition (IC50). The value for `CC(Oc1ccc(C#N)c(C(F)(F)F)c1)c1ccccc1` (racemic) [Example 1, 4-(1-Phenyl-ethoxy)-2-trifluoromethyl-benzonitrile] was 0.09 µM; that for `CC(Oc1ccc(C#N)c(C(F)(F)F)c1)c1cncc(O)c1` (single isomer, unassigned; (+)) [Example 74, (+)4-[1-(5-Hydroxypyridin-3-yl)ethoxy]-2-(trifluoromethyl)benzonitrile] was 0.111 µM. The value for `CCCC(Oc1ccc(C#N)c(C(F)(F)F)c1)c1cccc(O)c1` (single isomer, unassigned; (+)) [Example 15, (+)4-[1-(3-Hydroxyphenyl)butoxy]-2-(trifluoromethyl)benzonitrile] was 0.102 µM; that for `COc1cccc(C(C)Oc2ccc(C#N)c(C(F)(F)F)c2)n1` (stereo not drawn) [Example 80, 4-[1-(6-Methoxy-pyridin-2-yl)-ethoxy]-2-trifluoromethyl-benzonitrile] was 0.152 µM; that for `CCCC(Oc1ccc(C#N)c(C(F)(F)F)c1)c1cccc(O)c1` (racemic) [Example 14, 4-[1-(3-Hydroxyphenyl)butoxy]-2-(trifluoromethyl)benzonitrile] was 0.036 µM. Turning to `Cc1ccc(C(CC(C)C)Oc2ccc(C#N)c(C(F)(F)F)c2)cn1` (stereo not drawn) [Example 89, 4-[3-Methyl-1-(6-methyl-pyridin-3-yl)-butoxy]-2-trifluoromethyl-benzonitrile], the IC50 was determined as 0.056 µM. On to `CC(C)CC(Oc1ccc(C#N)c(C(F)(F)F)c1)c1cccnc1` (stereo not drawn) [Example 88, 4-(3-Methyl-1-pyridin-3-yl-butoxy)-2-trifluoromethyl-benzonitrile], for which the IC50 is 0.05 µM. The same measure for `N#Cc1ccc(OCc2cccc(O)c2)cc1C(F)(F)F` [Example 6, 4-[(3-Hydroxybenzyl)oxy]-2-(trifluoromethyl)benzonitrile]: 0.006 µM. The value for `CC(Oc1ccc(C#N)c(C(F)(F)F)c1)c1cccc(O)c1` (single isomer, unassigned; (-)) [Example 9, (−)-4-[1-(3-Hydroxyphenyl)ethoxy]-2-(trifluoromethyl)benzonitrile] was 0.013 µM; that for `CCC(Oc1ccc(C#N)c(C(F)(F)F)c1)c1ccccn1` (stereo not drawn) [Example 79, 4-(1-Pyridin^−2-yl-propoxy)-2-trifluoromethyl-benzonitrile] was 0.0271 µM; that for `C=CCC(Oc1ccc(C#N)c(C(F)(F)F)c1)c1cccc(O)c1` (single isomer, unassigned; (-)) [Example 19, (−)4-{[1-(3-Hydroxyphenyl)but-3-enyl]oxy}-2-(trifluoromethyl)benzonitrile] was 0.034 µM.
